Reference: PubChem BioAssay AID256 (DTP/NCI, 2004)
Where “and” joins values, the source holds several entries; their conditions need not be identical. Equal values may be shown once. Inconclusive results and toxic doses are left out. How the source made its calls: active means survival T/C of 150% or more; inactive means T/C below 125% in these data.

System: CD2F1 mice, L1210 leukemia ip, survival T/C
Assay: NCI In Vivo Anticancer Drug Screen. Data for tumor model L1210 Leukemia (intraperitoneal) in CD2F1 (CDF1) mice
Details: higher = longer survival
In short: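 Activity against a transplanted murine tumor was judged by comparing the compound group with a vehicle group. The outcome in the treated animals was divided by that in the controls.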

[1] = endpoint: mean survival time, dose: 100.0 mg/kg/injection, schedule: Q01DX009 (ip), vehicle: saline with Tween-80
[2] = endpoint: mean survival time, dose: 100.0 mg/kg/injection, schedule: Q04DX003 (ip), vehicle: saline with Tween-80
[3] = endpoint: mean survival time, dose: 200.0 mg/kg/injection, schedule: Q01DX009 (ip), vehicle: saline with Tween-80
[4] = endpoint: mean survival time, dose: 200.0 mg/kg/injection, schedule: Q04DX003 (ip), vehicle: saline with Tween-80
[5] = endpoint: mean survival time, dose: 400.0 mg/kg/injection, schedule: Q01DX009 (ip), vehicle: saline with Tween-80
[6] = endpoint: mean survival time, dose: 400.0 mg/kg/injection, schedule: Q04DX003 (ip), vehicle: saline with Tween-80
[7] = endpoint: mean survival time, dose: 100.0 mg/kg/injection, schedule: Q04DX002 (ip), vehicle: saline with Tween-80
[8] = endpoint: mean survival time, dose: 200.0 mg/kg/injection, schedule: Q04DX002 (ip), vehicle: saline with Tween-80
[9] = endpoint: mean survival time, dose: 5.0 mg/kg/injection, schedule: Q01DX009 (ip), vehicle: saline
[10] = endpoint: mean survival time, dose: 5.0 mg/kg/injection, schedule: Q04DX003 (ip), vehicle: saline
[11] = endpoint: mean survival time, dose: 10.0 mg/kg/injection, schedule: Q01DX009 (ip), vehicle: saline
[12] = endpoint: mean survival time, dose: 10.0 mg/kg/injection, schedule: Q04DX003 (ip), vehicle: saline
[13] = endpoint: mean survival time, dose: 20.0 mg/kg/injection, schedule: Q01DX009 (ip), vehicle: saline
[14] = endpoint: mean survival time, dose: 20.0 mg/kg/injection, schedule: Q04DX003 (ip), vehicle: saline
[15] = endpoint: mean survival time, dose: 50.0 mg/kg/injection, schedule: Q01DX009 (ip), vehicle: saline with Tween-80

Measured: T/C

CN(Cc1ccccc1)N=Nc1ccc(C(=O)O)cc1
inactive: endpoint: mean survival time, dose: 25.0 mg/kg/injection, schedule: Q01DX009 (ip), vehicle: other 105 % of control | endpoint: mean survival time, dose: 50.0 mg/kg/injection, schedule: Q01DX009 (ip), vehicle: other 108 % of control | endpoint: mean survival time, dose: 100.0 mg/kg/injection, schedule: Q01DX009 (ip), vehicle: other 101 % of control

O=C(Nc1ccccc1[N+](=O)[O-])c1ccc(C(=O)Nc2ccccc2[N+](=O)[O-])cc1
inactive: endpoint: mean survival time, dose: 75.0 mg/kg/injection, schedule: Q01DX001 (ip), vehicle: saline 87 % of control | endpoint: mean survival time, dose: 150.0 mg/kg/injection, schedule: Q01DX001 (ip), vehicle: saline 96 % of control | endpoint: mean survival time, dose: 300.0 mg/kg/injection, schedule: Q01DX001 (ip), vehicle: saline 91 % of control

O=S(=O)(OCC1CC2CCC1CC2)c1ccc(Br)cc1 (centres undefined)
inactive: [1] 96 % of control | [2] 95 % of control | [3] 112 % of control | [4] 97 % of control | [5] 102 % of control | [6] 95 % of control

Cn1c(CS)nc2ccccc21
inactive: [7] 101 % of control | [8] 93 % of control

CSc1ncnc2c1cnn2C1OC(CO)C(O)C1O (centres undefined)
inactive: endpoint: mean survival time, dose: 12.5 mg/kg/injection, schedule: Q01DX005 (ip), vehicle: other 93 % of control | endpoint: mean survival time, dose: 25.0 mg/kg/injection, schedule: Q01DX005 (ip), vehicle: other 100 % of control | endpoint: mean survival time, dose: 50.0 mg/kg/injection, schedule: Q01DX005 (ip), vehicle: other 105 % of control | endpoint: mean survival time, dose: 100.0 mg/kg/injection, schedule: Q01DX005 (ip), vehicle: other 122 % of control and 100 % of control | endpoint: mean survival time, dose: 200.0 mg/kg/injection, schedule: Q01DX005 (ip), vehicle: other 119 % of control and 112 % of control

O=C(O)c1ccccc1C(=O)Nc1ccc([N+](=O)[O-])cc1
inactive: [2] 98 % of control | [6] 91 % of control

CN(C)C1CCCCC1[N+](C)(C)C (centres undefined)
inactive: [9] 101 % of control | [10] 104 % of control | [11] 107 % of control | [12] 101 % of control | [13] 104 % of control | [14] 98 % of control

O=C(Nc1ccc(Cl)c(Cl)c1)Nc1cc(Cl)ccc1Sc1ccc(Cl)cc1S(=O)(=O)O
inactive: endpoint: mean survival time, dose: 25.0 mg/kg/injection, schedule: Q01DX009 (ip), vehicle: saline with Tween-80 100 % of control | [15] 100 % of control | [1] 105 % of control | [2] 101 % of control

CC(=O)NNC(=O)c1ccc(Br)cc1
inactive: [1] 107 % of control | [3] 119 % of control

COc1ccc2c(ccc[n+]2C)c1
inactive: [9] 106 % of control | [10] 103 % of control | [11] 107 % of control | [12] 101 % of control | endpoint: mean survival time, dose: 12.5 mg/kg/injection, schedule: Q01DX009 (ip), vehicle: alcohol 107 % of control | endpoint: mean survival time, dose: 12.5 mg/kg/injection, schedule: Q04DX003 (ip), vehicle: acetone 104 % of control | [13] 106 % of control | [14] 109 % of control | endpoint: mean survival time, dose: 25.0 mg/kg/injection, schedule: Q01DX009 (ip), vehicle: alcohol 116 % of control | endpoint: mean survival time, dose: 25.0 mg/kg/injection, schedule: Q04DX003 (ip), vehicle: acetone 106 % of control | endpoint: mean survival time, dose: 50.0 mg/kg/injection, schedule: Q04DX003 (ip), vehicle: acetone 106 % of control

CCC(=O)Sc1ccccc1C(=O)Nc1ccc(Cl)cc1
inactive: endpoint: median survival time, dose: 25.0 mg/kg/injection, schedule: Q01DX009 (ip), vehicle: saline with Tween-80 112 % of control | endpoint: median survival time, dose: 50.0 mg/kg/injection, schedule: Q01DX009 (ip), vehicle: saline with Tween-80 111 % of control | endpoint: median survival time, dose: 100.0 mg/kg/injection, schedule: Q01DX009 (ip), vehicle: saline with Tween-80 107 % of control | endpoint: median survival time, dose: 200.0 mg/kg/injection, schedule: Q01DX009 (ip), vehicle: saline with Tween-80 112 % of control | endpoint: median survival time, dose: 400.0 mg/kg/injection, schedule: Q01DX009 (ip), vehicle: saline with Tween-80 86 % of control

CC1=CC(=O)C(Sc2ccc(C)cc2)=CC1=O
inactive: [15] 94 % of control

CN(C)CC(Cl)CCl (centres undefined)
inactive: endpoint: mean survival time, dose: 12.5 mg/kg/injection, schedule: Q01DX009 (ip), vehicle: saline 98 % of control | endpoint: mean survival time, dose: 25.0 mg/kg/injection, schedule: Q01DX009 (ip), vehicle: saline 98 % of control | endpoint: mean survival time, dose: 50.0 mg/kg/injection, schedule: Q01DX009 (ip), vehicle: saline 104 % of control | endpoint: mean survival time, dose: 100.0 mg/kg/injection, schedule: Q01DX009 (ip), vehicle: saline 105 % of control and 108 % of control | endpoint: mean survival time, dose: 200.0 mg/kg/injection, schedule: Q01DX009 (ip), vehicle: saline 116 % of control and 101 % of control

CSCCCNC(=O)c1csc(CCNC(=O)c2ccccc2)n1
inactive: [1] 108 % of control | [3] 101 % of control | [5] 101 % of control

CCOC(=O)/C=C/SCC(N)C(=O)OCC (centres undefined)
inactive: endpoint: mean survival time, dose: 25.0 mg/kg/injection, schedule: Q04DX002 (ip), vehicle: saline 98 % of control | endpoint: mean survival time, dose: 50.0 mg/kg/injection, schedule: Q04DX002 (ip), vehicle: saline 94 % of control | endpoint: mean survival time, dose: 100.0 mg/kg/injection, schedule: Q01DX001 (ip), vehicle: saline 101 % of control | endpoint: mean survival time, dose: 100.0 mg/kg/injection, schedule: Q04DX002 (ip), vehicle: saline 96 % of control

O=[N+]([O-])c1c(Cl)cc(Cl)c(-c2c(Cl)cc(Cl)c([N+](=O)[O-])c2Cl)c1Cl
inactive: endpoint: mean survival time, dose: 12.5 mg/kg/injection, schedule: Q01DX009 (ip), vehicle: water 97 % of control | endpoint: mean survival time, dose: 25.0 mg/kg/injection, schedule: Q01DX009 (ip), vehicle: water 100 % of control | endpoint: mean survival time, dose: 50.0 mg/kg/injection, schedule: Q01DX009 (ip), vehicle: water 94 % of control | endpoint: mean survival time, dose: 100.0 mg/kg/injection, schedule: Q01DX009 (ip), vehicle: water 95 % of control | endpoint: mean survival time, dose: 200.0 mg/kg/injection, schedule: Q01DX009 (ip), vehicle: water 94 % of control

CC(=O)Nc1ccc(/C=C/[N+](=O)[O-])cc1
inactive: endpoint: mean survival time, dose: 75.0 mg/kg/injection, schedule: Q01DX001 (ip), vehicle: other 105 % of control | endpoint: mean survival time, dose: 150.0 mg/kg/injection, schedule: Q01DX001 (ip), vehicle: other 108 % of control | endpoint: mean survival time, dose: 300.0 mg/kg/injection, schedule: Q01DX001 (ip), vehicle: other 114 % of control

CC12C(=O)C(C)(C(c3ccccc3)=C1c1ccccc1)C([N+](=O)[O-])C2c1ccccc1 (centres undefined)
inactive: [7] 94 % of control | [8] 97 % of control | endpoint: mean survival time, dose: 400.0 mg/kg/injection, schedule: Q04DX002 (ip), vehicle: saline with Tween-80 94 % of control

C/C(=N/O)C1=C(O)C(Cc2ccccc2)NC1=O (centres undefined)
inactive: endpoint: mean survival time, dose: 12.5 mg/kg/injection, schedule: Q04DX002 (ip), vehicle: saline with Tween-80 100 % of control | endpoint: mean survival time, dose: 25.0 mg/kg/injection, schedule: Q04DX002 (ip), vehicle: saline with Tween-80 121 % of control | endpoint: mean survival time, dose: 50.0 mg/kg/injection, schedule: Q04DX002 (ip), vehicle: saline with Tween-80 103 % of control

COc1ccccc1OCC(C)=O
inactive: [2] 108 % of control | [4] 98 % of control | [6] 97 % of control

Nc1nc2c(c(=O)[nH]1)N1C(=O)N(c3ccc(C(=O)NC(CCC(=O)O)C(=O)O)cc3)CC1CN2 (centres undefined)
inactive: endpoint: mean survival time, dose: 100.0 mg/kg/injection, schedule: Q01DX001 (ip), vehicle: sodium bicarbonate 107 % of control | endpoint: mean survival time, dose: 200.0 mg/kg/injection, schedule: Q01DX001 (ip), vehicle: sodium bicarbonate 113 % of control | endpoint: mean survival time, dose: 400.0 mg/kg/injection, schedule: Q01DX001 (ip), vehicle: sodium bicarbonate 109 % of control

CCC(CC(N)=O)C(C#N)(C#N)C(N)=O (centres undefined)
inactive: endpoint: mean survival time, dose: 100.0 mg/kg/injection, schedule: Q01DX001 (ip), vehicle: saline with Tween-80 100 % of control | endpoint: mean survival time, dose: 200.0 mg/kg/injection, schedule: Q01DX001 (ip), vehicle: saline with Tween-80 98 % of control | endpoint: mean survival time, dose: 400.0 mg/kg/injection, schedule: Q01DX001 (ip), vehicle: saline with Tween-80 98 % of control

CCCCCCCCCCCCSC#N
inactive: endpoint: mean survival time, dose: 100.0 mg/kg/injection, schedule: Q04DX002 (ip), vehicle: Klucel (hydroxypropylcellulose) (HPC) 101 % of control | [7] 96 % of control | endpoint: mean survival time, dose: 200.0 mg/kg/injection, schedule: Q04DX002 (ip), vehicle: Klucel (hydroxypropylcellulose) (HPC) 101 % of control | [8] 101 % of control
